Source: PubChem BioAssay AID1963829 (Molecular Pharmacology Branch, DTP, NCI, 2024)
pIC50: −log10 of the molar value.

System: 935938-334-R-J1-PDC complex spheroid viability
Assay: Anticancer human tumor 935938-334-R-J1-PDC patient-derived small intestine adenocarcinoma cell line growth inhibition [POLQ]
Details: for pIC50: curve of first compound; for viability, T/C: stronger effect = lower value
Experimental: Multicellular complex tumor spheroid response to Polymerase (POL) inhibitors (novobiocin, ART-558, RP6685) in combination with a variety of drugs and investigational agents in selected tumor cell lines
The POL inhibitors (novobiocin, ART-558, and RP6685) were evaluated both individually and in combination with standard of care and investigational anticancer small molecules within a complex spheroid model of solid tumors. . Complex spheroids include a stromal component modeled by human endothelial cells (HUVEC) and fibroblasts modeled by human mesenchymal stem cells (MSCs). The concentration ranges selected for each drug and investigational agent were based upon clinically achievable concentrations if the clinical Cmax of the agent was known.
Compounds. The drugs and investigational agents: novobiocin (NSC847541), ART-558 (NSC835418), RP-6685 (NSC848927), peposertib (NSC802822), ceralasertib (NSC780249), elimusertib (NSC800525), camonsertib (NSC841442), AZD-1390 (NSC803789), olaparib (NSC753686), talazoparib (NSC767125), rucaparib (NSC756644), sotorasib (NSC818433), MRTX-1133 (NSC836407), SN-38 (NSC673596), topotecan (NSC609699), epotoside (NSC141540), doxorubicin (NSC123127), gemcitabine (NSC613327), 5-fluorouracil (NSC19893), paclitaxel (NSC125973), vemurafenib (NSC761431), MSA-2 (NSC828583), SN-011 (NSC837082), adavosertib (NSC754352), prexasertib (NSC758257), carboplatin (NSC241240) and oxaliplatin (NSC266046), were obtained from the National Cancer Institute (NCI) Developmental Therapeutics Program Chemical Repository (21). The FDA-approved anticancer drug set is available from the Developmental Therapeutics Program at https://dtp.cancer.gov/organization/dscb/obtaining/. […] The stock solutions were prepared in dimethyl sulfoxide (DMSO, Sigma-Aldrich, St. Louis, MO, cat. D2650), except for the platinum compounds which were prepared in saline (Quality Biological, Gaithersburg, MD, cat. 114-055-101), at 800-fold the tested concentration and stored at -70 degrees C prior to their use. All drugs and investigational agents were tested over a range starting from a high concentration at or near the clinical Cmax and decreasing in half-log increments. If the clinical Cmax for an agent had not been determined, the highest concentration tested was 10 microM, except for SN-38, which was tested at a high concentration of 1 microM.
Cell Culture. All cells were maintained in an incubator at 37 degrees C and 5% CO2 with 95% humidity. The PDC lines were cultured according to standard operating procedures established by the NCI PDMR (https://pdmr.cancer.gov). Table 3 of the manuscript, lists the cell lines along with the number of the three cell types plated to form the mct-spheroids and media for tumor cell growth. After thawing, all PDC lines, except 997537-175-T-J1-PDC and 415267-285-R-J2-PDC, were cultured in Matrigel-coated flasks prepared with a working solution of 1X Ham's F-12 nutrient mix, without supplementation (Thermo Fisher Scientific, cat. 11765054), 100 U/mL penicillin-streptomycin (Thermo Fisher Scientific, cat. 15140122), and 2.5% Matrigel (Corning Inc., Corning, NY, cat. 354248) for the first three passages. The two PDC lines 997537-175-T-J1-PDC and 415267-285-R-J2-PDC were cultured on uncoated flasks. The 857933-349-R-J2-PDC line was cultured in 6C/Colon 1B media containing advanced DMEM/F-12 (Thermo Fisher Scientific, cat. 12634028), 10 mM HEPES (Thermo Fisher Scientific, cat. 15630080), 1X GlutaMAX supplement (Thermo Fisher Scientific, cat. 35050061), 0.1 mg/mL primocin (InvivoGen, San Diego, CA, cat. ant-pm-2), 10% defined fetal bovine serum, heat inactivated (HyClone Laboratories Inc., Logan, UT, cat. SH30070.03HI), 50% L-WRN conditioned media (ATCC, cat. CRL-3276), 1.25 mM N-Acetyl-L-cysteine (Sigma-Aldrich, cat. A9165), 10 mM nicotinamide (Sigma-Aldrich, cat. N0636), 1X B-27 supplement (Thermo Fisher Scientific, cat. 17504044), 1X N-2 supplement (Thermo Fisher Scientific, cat. […]

[1] = second compound 0.0316 µM, first compound 0.0316 µM
[2] = second compound 0.0316 µM, first compound 0.1 µM
[3] = second compound 0.0316 µM, first compound 0.316 µM
[4] = second compound 0.0316 µM, first compound 1 µM
[5] = second compound 0.0316 µM, first compound 3.16 µM
[6] = second compound 0.0316 µM, first compound 10 µM
[7] = second compound 0.1 µM, first compound 0.0316 µM
[8] = second compound 0.1 µM, first compound 0.1 µM
[9] = second compound 0.1 µM, first compound 0.316 µM
[10] = second compound 0.1 µM, first compound 1 µM
[11] = second compound 0.1 µM, first compound 3.16 µM
[12] = second compound 0.1 µM, first compound 10 µM
[13] = second compound 0.316 µM, first compound 0.0316 µM
[14] = second compound 0.316 µM, first compound 0.1 µM
[15] = second compound 0.316 µM, first compound 0.316 µM
[16] = second compound 0.316 µM, first compound 1 µM
[17] = second compound 0.316 µM, first compound 3.16 µM
[18] = second compound 0.316 µM, first compound 10 µM
[19] = second compound 1 µM, first compound 0.0316 µM
[20] = second compound 1 µM, first compound 0.1 µM
[21] = second compound 1 µM, first compound 0.316 µM
[22] = second compound 1 µM, first compound 1 µM
[23] = second compound 1 µM, first compound 3.16 µM
[24] = second compound 1 µM, first compound 10 µM
[25] = second compound 3.16 µM, first compound 0.0316 µM
[26] = second compound 3.16 µM, first compound 0.1 µM
[27] = second compound 3.16 µM, first compound 0.316 µM
[28] = second compound 3.16 µM, first compound 1 µM
[29] = second compound 3.16 µM, first compound 3.16 µM
[30] = second compound 3.16 µM, first compound 10 µM
[31] = second compound 10 µM, first compound 0.0316 µM
[32] = second compound 10 µM, first compound 0.1 µM
[33] = second compound 10 µM, first compound 0.316 µM
[34] = second compound 10 µM, first compound 1 µM
[35] = second compound 10 µM, first compound 3.16 µM
[36] = second compound 10 µM, first compound 10 µM
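Further: spheroids exposed to drugs for seven days before viability read.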
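Wherever viability, T/C is given: 100% = DMSO vehicle control wells.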

COc1ccc([C@@H](O)c2cc(-c3ncnc4cc(N5CCOCC5)ccc34)c(F)cc2Cl)nn1 + COC1C(OC(N)=O)C(O)C(Oc2ccc3c(O)c(NC(=O)c4ccc(O)c(CC=C(C)C)c4)c(=O)oc3c2C)OC1(C)C
pIC50 (second compound 0.0316 µM): 5.26
pIC50 (second compound 0.1 µM): 5.33
pIC50 (second compound 0.316 µM): 5.34
pIC50 (second compound 1 µM): 5.49
pIC50 (second compound 3.16 µM): 5.18
pIC50 (second compound 10 µM): 5.18
viability, T/C [1]: 96.2%
viability, T/C [2]: 131%
viability, T/C [3]: 106%
viability, T/C [4]: 76.4%
viability, T/C [5]: 67.5%
viability, T/C [6]: 36.3%
viability, T/C [7]: 111%
viability, T/C [8]: 106%
viability, T/C [9]: 75%
viability, T/C [10]: 89.2%
viability, T/C [11]: 64.4%
viability, T/C [12]: 26.6%
viability, T/C [13]: 102%
viability, T/C [14]: 103%
viability, T/C [15]: 98.2%
viability, T/C [16]: 59.3%
viability, T/C [17]: 66.3%
viability, T/C [18]: 35.1%
viability, T/C [19]: 113%
viability, T/C [20]: 125%
viability, T/C [21]: 111%
viability, T/C [22]: 85.2%
viability, T/C [23]: 51.6%
viability, T/C [24]: 33.9%
viability, T/C [25]: 115%
viability, T/C [26]: 97.8%
viability, T/C [27]: 108%
viability, T/C [28]: 81.4%
viability, T/C [29]: 73%
viability, T/C [30]: 38.1%
viability, T/C [31]: 95.8%
viability, T/C [32]: 72.4%
viability, T/C [33]: 96.4%
viability, T/C [34]: 70.4%
viability, T/C [35]: 80%
viability, T/C [36]: 34.8%

O=c1[nH]cc(F)c(=O)[nH]1 + COC1C(OC(N)=O)C(O)C(Oc2ccc3c(O)c(NC(=O)c4ccc(O)c(CC=C(C)C)c4)c(=O)oc3c2C)OC1(C)C
pIC50 (second compound 0.0316 µM): < 5.00
pIC50 (second compound 0.1 µM): < 5.00
pIC50 (second compound 0.316 µM): 5.32
pIC50 (second compound 1 µM): < 5.00
pIC50 (second compound 3.16 µM): 5.09
pIC50 (second compound 10 µM): < 5.00
viability, T/C [1]: 85.7%
viability, T/C [2]: 96.3%
viability, T/C [3]: 76.8%
viability, T/C [4]: 71.9%
viability, T/C [5]: 67.4%
viability, T/C [6]: 57%
viability, T/C [7]: 79.4%
viability, T/C [8]: 103%
viability, T/C [9]: 83.2%
viability, T/C [10]: 63%
viability, T/C [11]: 63.3%
viability, T/C [12]: 55.9%
viability, T/C [13]: 103%
viability, T/C [14]: 76.7%
viability, T/C [15]: 71.9%
viability, T/C [16]: 72.9%
viability, T/C [17]: 60.5%
viability, T/C [18]: 36.5%
viability, T/C [19]: 93%
viability, T/C [20]: 96.4%
viability, T/C [21]: 80.9%
viability, T/C [22]: 52.8%
viability, T/C [23]: 64.5%
viability, T/C [24]: 51.1%
viability, T/C [25]: 87.8%
viability, T/C [26]: 82.5%
viability, T/C [27]: 73.3%
viability, T/C [28]: 64.4%
viability, T/C [29]: 58%
viability, T/C [30]: 48%
viability, T/C [31]: 76.6%
viability, T/C [32]: 82.4%
viability, T/C [33]: 91.5%
viability, T/C [34]: 67.3%
viability, T/C [35]: 52.3%
viability, T/C [36]: 51.3%
